Results reported in patent US8945635B2, “Formulations comprising extracts from primitive plant species (mosses, ferns and lichens) to treat and prevent cancers” (priority 2006, dated 2015).
Read-outs that look alike come from different tables or passages of the source.

Experiments:
[1] = tested on: GBM monolayer culture (ATCC crl-2020); details: for Viability: GBM monolayer, 12 hours at 38° C., carmustine 50 μM, curcumin 20 μM, CAPE 20 μM, ABA 400 μM, extract sample 19 10 mg/mL
From the text: (§1) Carmustine, berberine, curcumin, caffeic acid phenyl ester (CAPE), abscisic acid and a extract sample 19 (fern) were used, singly and in various combinations, to assess their potential effectiveness in promoting in vitro cell death responses in a malignant GBM cell line (ATCC crl-2020). Two different culture models were used in these experiments. The majority of vertebrate cells cultured in vitro grow as monolayers on an artificial substrate, as is the case with GBM cells. Live cells attach to the bottom of a tissue culture plate where they proliferate until the surface is confluent with cells. […] The three dimensional structure of solid tumors makes such tumors more resistant to treatment than a GBM cell monolayer culture. To more closely approximate in vivo conditions a multi-cellular tumor spheroid (MTS) model was used. In this model GBM cells were cultured on a 1% agarose matrix in a 24 well tissue culture dish to form multi cellular aggregates. […] Trypan blue staining and microscopic observation was used to assess cell viability after treatment.
A GBM monolayer culture plate was treated with moderately low concentrations of carmustine (50 μM dose); curcumin (20 μM dose); CAPE (20 μM dose); ABA (400 μM dose) and extract sample 19 (10 mg/mL dose). The treated cultures were incubated for 12 hours at 38° C. and assayed. The dosing conditions were sub-optimal dosing conditions designed to allow better assessment of the combined agent results.

[2] = tested on: GBM multicellular tumor spheroid (MTS) culture (ATCC crl-2020)
From the text: as §1
A GBM multicellular tumor spheroid (MTS) culture plate was treated with moderately low concentrations of carmustine (50 μM dose); curcumin (20 μM dose); CAPE (20 μM dose); ABA (400 μM dose) and extract sample 19 (10 mg/mL dose). The treated cultures were incubated for 24 hours at 38° C. and assayed. The dosing conditions were designed to represent sub-optimal dosing conditions.
A GBM multicellular tumor spheroid (MTS) culture plate was treated with different two agent and three agent combinations including curcumin and extract sample 13; carmustine and extract sample 13; carmustine and curcumin; and carmustine and curcumin and extract sample 13. The agent concentrations were the same as in the single agent testing (carmustine (50 μM dose); curcumin (20 μM dose); CAPE (20 μM dose); ABA (400 μM dose) and extract sample 13 (10 mg/mL dose).
The treated cultures were incubated for 24 hours at 38° C. and assayed. The dosing conditions were designed to represent sub-optimal dosing conditions.

[3] = tested on: Glioblastoma Multiforme (GBM); details: cited from earlier work
[4] = tested on: Metastatic colon cancer (SW620) MTS cells; experiment: Single agent treatment of metastatic colon cancer MTS cells; type: cell-based, human; details: 5 days, 5-fluorouracil 2.5 μM, Gemcitabine 5 μM
Description: Metastatic MTS colon cancer (SW620) were treated for 24 hours with extract samples 1 (moss), 2 (moss), 4 (moss), 6 (moss), 5 (moss), 7 (fern), 8 (fern), 9 (moss), all at 50 mg/mL, and for 5 days with the standard chemotherapeutics 5-fluorouracil at 2.5 μM and Gemcitabine at 5 μM.
Metastatic colon cancer (SW620) MTS cells were treated for 24 hours with extract samples 12 (moss), 13 (fern), 14 (lichen), all at 50 mg/mL, and for 5 days with the standard chemotherapeutics 5-fluorouracil at 2.5 μM and Gemcitabine at 5 μM.

[5] = GBM monolayer cell cultures, agent used alone
[6] = GBM MTS cell cultures, agent used alone
[7] = Table 18, standard chemotherapeutics
[8] = Table 19, standard chemotherapeutics

**Q.** Which “cytotoxicity of single agent in words” value [1, 5] does the source give for caffeic acid phenyl ester [CAPE] here?
**A.** failed to produce significant cytotoxic responses

**Q.** What about the Viability [1] of the same compound?
**A.** 100%

**Q.** What about the “cytotoxicity of single agent in words” value [2, 6] of the same compound?
**A.** failed to produce significant cytotoxic responses

**Q.** Which “cytotoxicity of single agent in words” value [1, 5] does the source give for `CC1=CC(=O)CC(C)(C)[C@@]1(O)/C=C/C(C)=C\C(=O)O` [ABA, abscisic acid] here?
**A.** failed to produce significant cytotoxic responses

**Q.** And the Viability [1]?
**A.** 100%

**Q.** What about the “cytotoxicity of single agent in words” value [2, 6] of the same compound?
**A.** failed to produce significant cytotoxic responses

**Q.** What does the source list for `O=NN(CCCl)C(=O)NCCCl` [carmustine, 1,3-bis(2-chloroethyl)-1-nitrosourea]?
**A.** side effects ([3]; Intravenous administration): a decrease of bone marrow blood cells, lung damage and death; mean survival rate ([3]; applied in time release fashion to the tumor site, from 11.6 months): 13.9 months; cytotoxicity of single agent in words [1, 5]: only low level cytotoxicity; Viability [1]: 100%; cytotoxicity of single agent in words [2, 6]: only low level cytotoxicity

**Q.** Which results are given for `COc1cc(/C=C/C(=O)CC(=O)/C=C/c2ccc(O)c(OC)c2)ccc1O` [curcumin]?
**A.** cytotoxicity of single agent in words [1]: failed to produce significant cytotoxic responses; cytotoxicity of single agent in words [2]: failed to produce significant cytotoxic responses

**Q.** Which results are given for `O=c1[nH]cc(F)c(=O)[nH]1` [5-fluorouracil]?
**A.** % dead cells [4, 7]: 55%; % live cells [4, 7]: 45%; % dead cells [4, 8]: 75%; % live cells [4, 8]: 25%

**Q.** Which “% dead cells” value [4, 7] does the source give for `Nc1ccn([C@@H]2O[C@H](CO)[C@@H](O)C2(F)F)c(=O)n1` [Gemcitabine] here?
**A.** 20%

**Q.** What about the “% live cells” value [4, 7] of the same compound?
**A.** 80%

**Q.** What about the “% dead cells” value [4, 8] of the same compound?
**A.** 95%

**Q.** What about the “% live cells” value [4, 8] of the same compound?
**A.** 5%
